This note sets out measurements from US20240197728A1, “METHODS AND PHARMACEUTICAL COMPOSITIONS FOR TREATING REFRACTORY EPILEPSY” (INSERM (INSTITUT NATIONAL DE LA SANTÉ ET DE LA RECHERCHE …, priority 2021, published 2024).

The subject of this assay is lithium-pilocarpine model of mTLE. Nature of the assay: Lithium-pilocarpine mouse model of mTLE, telemetric ECoG seizure detection. Conditions: PCPZ 2 mg/kg i.p. twice daily. The format is in vivo, C57Bl6/J mice. The procedure:
Our procedures were all approved by local ethics committee (Charles Darwin, Apafis 202008050923999 v4). 8 weeks-old male C57B16/J mice were used in a pilocarpine-based model of temporal lobe epilepsy as described. In brief, animals received an intraperitoneal (ip) injection of LiCl (423 mg/kg) and scopolamine (1 mg/kg), respectively 18-24 hours and 1 hour prior to pilocarpine. Pilocarpine (75 mg/kg) was then injected ip and mice were continuously monitored for the onset of status epilepticus (SE). In mice in which the first pilocarpine injection had not triggered SE after one hour, a second injection at 20 mg/kg was performed. SE was interrupted one hour after onset by ip injection of diazepam and ketamine (both at 10 mg/kg). […] They were monitored daily for weight, behavior and were provided with enriched liquid food (Fortimel Energy®) for the first 5-7 days post SE. […]
ECoG probe implantation was performed 28 days post SE in all mice except for 1 mouse that was implanted prior to SE induction in order to monitor chronic seizure onset (FIG. 6D). […] One week after implantation, ECoG signal (0.3-160 Hz) were recorded continuously using a telemetric Octal Data Receiver (OpenSourceInstruments), amplified 100× and acquired at 512 Hz. Recordings were analyzed offline using Event Classification Processor ECP20 under NeuroArchiver 132. […]

`CN1CCN(CCCN2c3ccccc3Sc3ccc(Cl)cc32)CC1` [PCPZ, prochlorperazine] registered a seizure frequency (chronic phase days 40-45 post-SE, saline group 2.86±0.83) of 0.95±0.42 per day. Besides, the “reduction in seizure frequency compared to saline control group” value (days 40-45 post-SE) is given as 3 fold.
